Earlier results, collected in US20250049951A1, “NUCLEIC ACID COMPOSITIONS AND USES THEREOF” (SURGE Therapeutics, Inc., priority 2021, published 2025).
Where “and” joins values, the source holds several entries; their conditions need not be identical. Identical values can stand only once.

What was measured:
TLR8 = biological target: T1, TLR8 (Homo sapiens, UniProt Q9NR97); settings: TLR8-transfected HEK293 cells
T1 construct: expressed in transfected cells; host or cells: HEK293
T1 sequence (Q9NR97 27-1041): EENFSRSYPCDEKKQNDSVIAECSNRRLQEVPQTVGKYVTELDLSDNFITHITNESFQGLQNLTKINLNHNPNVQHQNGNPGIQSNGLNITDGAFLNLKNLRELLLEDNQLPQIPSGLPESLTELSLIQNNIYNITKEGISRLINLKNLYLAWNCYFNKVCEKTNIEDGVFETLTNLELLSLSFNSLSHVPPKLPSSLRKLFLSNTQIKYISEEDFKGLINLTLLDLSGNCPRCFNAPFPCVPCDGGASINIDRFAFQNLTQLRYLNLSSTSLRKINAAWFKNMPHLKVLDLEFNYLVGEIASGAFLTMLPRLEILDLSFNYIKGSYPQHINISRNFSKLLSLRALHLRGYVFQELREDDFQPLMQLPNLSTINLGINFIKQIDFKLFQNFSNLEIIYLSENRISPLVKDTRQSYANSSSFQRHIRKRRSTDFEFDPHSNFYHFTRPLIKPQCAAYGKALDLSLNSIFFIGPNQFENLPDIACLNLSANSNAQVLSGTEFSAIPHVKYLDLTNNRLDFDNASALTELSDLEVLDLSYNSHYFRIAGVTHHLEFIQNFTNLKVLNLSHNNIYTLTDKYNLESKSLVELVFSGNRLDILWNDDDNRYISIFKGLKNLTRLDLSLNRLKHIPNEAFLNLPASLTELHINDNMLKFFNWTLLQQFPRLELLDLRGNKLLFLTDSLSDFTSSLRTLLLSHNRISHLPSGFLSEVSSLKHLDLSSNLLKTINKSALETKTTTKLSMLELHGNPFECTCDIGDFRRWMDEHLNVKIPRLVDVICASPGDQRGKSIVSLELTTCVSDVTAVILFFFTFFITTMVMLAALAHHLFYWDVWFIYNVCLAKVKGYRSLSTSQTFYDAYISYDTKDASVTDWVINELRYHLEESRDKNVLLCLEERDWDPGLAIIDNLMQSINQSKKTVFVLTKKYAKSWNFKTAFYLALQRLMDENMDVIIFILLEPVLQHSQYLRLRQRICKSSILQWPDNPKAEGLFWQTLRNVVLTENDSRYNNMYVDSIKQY

TLR7 = biological target: T2, TLR7 (Homo sapiens, UniProt Q9NYK1)
T2 construct: expressed in transfected cells; host or cells: HEK293
T2 sequence (Q9NYK1 27-1049): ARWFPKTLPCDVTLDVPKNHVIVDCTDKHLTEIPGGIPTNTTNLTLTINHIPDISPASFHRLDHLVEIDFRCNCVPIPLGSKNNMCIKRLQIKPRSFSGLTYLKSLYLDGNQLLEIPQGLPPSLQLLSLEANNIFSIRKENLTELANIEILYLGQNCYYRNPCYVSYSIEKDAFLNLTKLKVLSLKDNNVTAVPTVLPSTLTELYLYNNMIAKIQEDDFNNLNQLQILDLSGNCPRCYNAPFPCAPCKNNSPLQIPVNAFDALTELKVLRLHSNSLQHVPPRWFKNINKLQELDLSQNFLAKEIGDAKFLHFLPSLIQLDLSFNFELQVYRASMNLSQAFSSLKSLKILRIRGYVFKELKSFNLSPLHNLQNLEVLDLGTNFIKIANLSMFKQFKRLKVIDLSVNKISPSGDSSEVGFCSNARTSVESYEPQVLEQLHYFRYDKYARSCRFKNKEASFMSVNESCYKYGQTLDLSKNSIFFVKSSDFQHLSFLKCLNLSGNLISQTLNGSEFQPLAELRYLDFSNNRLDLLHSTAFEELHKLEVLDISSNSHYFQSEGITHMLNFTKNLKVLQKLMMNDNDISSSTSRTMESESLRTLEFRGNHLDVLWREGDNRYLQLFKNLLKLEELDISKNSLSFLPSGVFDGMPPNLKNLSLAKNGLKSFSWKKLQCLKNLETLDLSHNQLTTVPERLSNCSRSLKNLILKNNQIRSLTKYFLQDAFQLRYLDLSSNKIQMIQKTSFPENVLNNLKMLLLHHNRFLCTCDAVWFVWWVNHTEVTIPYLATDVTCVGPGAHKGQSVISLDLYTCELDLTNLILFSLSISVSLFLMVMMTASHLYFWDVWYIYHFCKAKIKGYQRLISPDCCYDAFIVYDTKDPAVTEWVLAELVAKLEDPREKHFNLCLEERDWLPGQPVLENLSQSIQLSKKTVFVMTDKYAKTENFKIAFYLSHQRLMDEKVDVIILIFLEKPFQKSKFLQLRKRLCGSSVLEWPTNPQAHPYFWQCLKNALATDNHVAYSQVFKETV

Row | concentration inducing NF-κB activation (TLR8) | amount required to activate NF-κB in TLR7- relative to TLR8-transfected HEK293 cells (TLR7; times more than the 0.4 μM needed in TLR8 cells) | potency in inducing NF-κB activation relative to CL075 (TLR8; more potent than CL075) | potency in inducing NF-κB activation relative to R848 (TLR8; more potent than R848) | water solubility | concentration inducing NF-κB activation (TLR7; TLR7-transfected HEK293 cells) | Structure (SMILES)
1 | 0.4 μM and 0.1 μg/ml | ~10 times |  |  |  |  | CCCc1nc2c(N)nc3ccccc3c2s1 [CL075]
2 |  |  | ~25 × | ~50 × |  |  | CCOC(=O)C1=Cc2ccc(-c3cccc(C#N)c3)cc2N=C(N)C1 [TL8-506]
3 | 4 μM and 1 μg/ml |  |  |  | ≥ 20 mg/mL | 0.4 μM and 0.1 μg/ml | CCOCC1Nc2c(N)nc3ccccc3c2N1 (stereo not shown) [CL097]
